The conditions of data set [1]: 40° C./75% RH; for XRPD of stressed sample (solid form after stress): 4 days, result in words.
For data set [2] the following is noted: for hygroscopicity suggested by DVS data: 5% to 95% RH; for weight gain observed on the sorption step: DVS whole sorption step. The method, then: Samples ae not dried prior to analysis. Equilibrium criteria used for analysis were less than 0.0100% weight change in 5 minutes, with a maximum equilibration time of 3 hours if the weight criterion was not met. Data are not corrected for the initial moisture content of the samples. Sodium chloride and polyvinypyrrolidine are used as calibration standards.

Where [3] appears, read: DVS desorption, result in words.

Consider three molecules from patent publication US8519002B2, “Colchicine solid complex; methods of making; and methods of use thereof” (Takeda Pharmaceuticals U.S.A., Inc., priority 2008, dated 2013).

Take `COc1cc2c(c(OC)c1OC)-c1ccc(OC)c(=O)cc1[C@@H](NC(C)=O)CC2.Cc1ccc(S(=O)(=O)O)cc1`: in data set [1], the “net weight gain after 4 days” value is on record as “approximately 1.0%” and the “XRPD of stressed sample (solid form after stress)” value (shortened to “XRPD of stressed sample”) is on record as “unchanged”. In data set [2] (result in words), the “hygroscopicity suggested by DVS data” value is reported as “not significantly hygroscopic”. In addition, the “weight loss from 95 to 5% RH” value in data set [2] (DVS desorption) is on record as 0.5% weight loss from 95 to 5% RH. Further, the “weight gain from 5 to 95% RH” value in data set [2] (DVS sorption, 5 to 95% RH) is 0.4% weight gain from 5 to 95% RH. Also, the “weight loss upon equilibration at 5% RH” value in data set [2] (DVS sorption, equilibration at 5% RH) was 0.01% weight loss upon equilibration at 5% RH. For the same molecule, in data set [2], the “weight gain observed on the sorption step” value was roughly 0.4%. In addition, the “net weight loss after sorption and desorption” value in data set [2] (DVS, desorption versus sorption) is listed as roughly 0.01%.
Turning to `COc1cc2c(c(OC)c1OC)-c1ccc(OC)c(=O)cc1[C@@H](NC(C)=O)CC2.O=C(O)C[C@H](O)C(=O)O` [colchicine malic acid co-crystal], in data set [1], the “net weight gain after 4 days” value was “approximately 5.4%” and the “XRPD of stressed sample” value was “remains unchanged”. In data set [2] (result in words), the “hygroscopicity suggested by DVS data” value is recorded as “hygroscopic”. Moreover, the “weight loss from 75 to 5% RH” value in data set [2] (DVS desorption, 75 to 5% RH) is 9.6% weight loss from 75 to 5% RH. In addition, the “weight loss from 95 to 75% RH” value in data set [2] (DVS desorption, 95 to 75% RH) is listed as 15.0% weight loss from 95 to 75% RH. The hysteresis upon desorption entry in data set [2] (setting [3]) is reported as “no hysteresis”. Besides, the “weight gain from 5 to 75% RH” value in data set [2] (DVS sorption) is given as 6.2% weight gain from 5 to 75% RH. Further, the “weight gain from 75 to 95% RH” value in data set [2] (DVS sorption, 75 to 95% RH (above 75% RH)) was 15.6% weight gain from 75 to 95% RH. Besides, in data set [2], the “weight gain observed on the sorption step” value is on record as “approximately 22%”. Further, the “Post DVS XRPD (solid form after DVS)” value in data set [2] (XRPD of sample after DVS) was “Colchicine malic acid co-crystal”.
For `COc1cc2c(c(OC)c1OC)-c1ccc(OC)c(=O)cc1[C@@H](NC(C)=O)CC2.COc1cc2c(c(OC)c1OC)-c1ccc(OC)c(=O)cc1[C@@H](NC(C)=O)CC2.O=C(O)C(=O)O` [colchicine oxalic acid co-crystal], in data set [1], the “net weight loss after 4 days” value is reported as “approximately 6.7%”; the “XRPD of stressed sample” value was “colchicine oxalic acid co-crystal, but minor disorder and shifting of the peaks is observed”. In data set [2] (result in words), the “hygroscopicity suggested by DVS data” value was “hygroscopic”. Moreover, the “weight loss from 95 to 5% RH” value in data set [2] (DVS desorption) was 15.2% weight loss from 95 to 5% RH. For the same molecule, the hysteresis upon desorption entry in data set [2] (setting [3]) is listed as “Significant hysteresis”. Besides, in data set [2] (DVS sorption), the “weight gain from 5 to 75% RH” value is 0.5% weight gain from 5 to 75% RH. Further, in data set [2] (DVS, upon desorption, result in words), the “behaviour of material in DVS (deliquescence)” value is listed as “deliquesces”.
